What was measured:
[1] = biological target: T1, HDAC10 (Homo sapiens, UniProt Q969S8); experiment: In-cell target engagement (NanoBRET) assay, NanoLuc-HDAC10; type: binding
T1 construct: NanoLuc®-HDAC10 FL Fusion Vector; host or cells: HeLa cells, stably transfected
T1 sequence (Q969S8 1-669): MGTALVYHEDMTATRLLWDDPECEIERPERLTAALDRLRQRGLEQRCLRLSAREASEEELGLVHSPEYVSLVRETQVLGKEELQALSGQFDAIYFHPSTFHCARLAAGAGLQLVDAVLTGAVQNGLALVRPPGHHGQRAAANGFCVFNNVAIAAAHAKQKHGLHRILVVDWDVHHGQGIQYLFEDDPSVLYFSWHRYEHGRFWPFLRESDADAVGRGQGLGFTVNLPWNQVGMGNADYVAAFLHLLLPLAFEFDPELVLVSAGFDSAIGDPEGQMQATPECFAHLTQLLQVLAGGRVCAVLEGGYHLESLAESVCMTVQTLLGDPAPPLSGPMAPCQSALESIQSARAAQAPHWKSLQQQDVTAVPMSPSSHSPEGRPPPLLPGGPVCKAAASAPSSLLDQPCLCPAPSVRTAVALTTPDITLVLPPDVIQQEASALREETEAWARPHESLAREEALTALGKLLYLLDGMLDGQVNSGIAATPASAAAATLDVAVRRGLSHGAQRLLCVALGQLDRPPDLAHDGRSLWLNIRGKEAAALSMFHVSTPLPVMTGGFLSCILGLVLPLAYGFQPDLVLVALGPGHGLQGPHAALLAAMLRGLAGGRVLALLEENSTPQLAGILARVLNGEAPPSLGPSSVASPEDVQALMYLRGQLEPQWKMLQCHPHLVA
Source text: We next investigated if accumulation of lysosomes was also affected by inhibition of HDAC6 and HDAC10, respectively. […] Since no bona fide downstream target protein of HDAC10 has been described to date, we performed an in-cell target engagement (NanoBRET) assay that measures competitive displacement of a fluorescently-labeled tracer from NanoLuc® Luciferase coupled HDAC10 enzyme. […] To exclude that lysosomal accumulation after treatment with HDAC6/10 inhibitors was caused by off-target inhibition of class I HDACs, we treated BE(2)-C cells with 1 mM class I HDAC inhibitor valproic acid (VPA).
HeLa cells, stabily transfected with NanoBRET plasmids NanoLuc®-HDAC6 FL Fusion Vector and NanoLuc®-HDAC10 FL Fusion Vector (Promega, Madison, WI, USA) were seeded at 20.000 cells/well in white 96 well plates. Without further incubation, tracer (0.3 µM) and drugs were added in separate steps and plates were placed in a tissue culture incubator for 2 h. For NanoBRET quantification, plates were put at room temperature for 10 minutes. Nanoglow substrate, diluted in OptiMEM without phenol red, was added and measured within 10 minutes in an OPTIMA plate reader (460 nm emission for donor and 610LP filter for acceptor). The BRET signal was calculated by the ratio of acceptor signal and donor signal.

[2] = tested on: proliferating human fibroblasts; experiment: Cell viability, automated trypan blue exclusion, fibroblasts; type: cell-based; conditions: 7.5 µM tubastatin A
Protocol: Adherent cell lines were trypsinized and cells were pooled with corresponding supernatant, centrifuged and resuspended in 1.5 ml cell culture media. Cell viability was measured by automated trypan blue staining with the Vi-Cell XR Cell Viability Analyzer from Beckman Coulter (Krefeld, Germany).

Structure (SMILES): CN1CCc2c(c3ccccc3n2Cc2ccc(C(=O)NO)cc2)C1 [tubastatin A]
- affinity towards HDAC10 (NanoBRET tracer displacement) [1]: strong affinity towards HDAC10
- cell death in proliferating fibroblasts, combination with 100 ng/ml doxorubicin, 24 h or 48 h [2]: did not induce significant cell death
